Publication PMC12369477 (Journal of Experimental Botany, 2025)
Each block holds one compound with its values, some of them ahead of it.

Assays:
AtGH3.6 [1] = biological target: T1, AtGH3.6 (Arabidopsis thaliana, UniProt Q9LSQ4); test: MST; type: binding
T1 construct: gene GH3.6
T1 sequence (Q9LSQ4 1-612): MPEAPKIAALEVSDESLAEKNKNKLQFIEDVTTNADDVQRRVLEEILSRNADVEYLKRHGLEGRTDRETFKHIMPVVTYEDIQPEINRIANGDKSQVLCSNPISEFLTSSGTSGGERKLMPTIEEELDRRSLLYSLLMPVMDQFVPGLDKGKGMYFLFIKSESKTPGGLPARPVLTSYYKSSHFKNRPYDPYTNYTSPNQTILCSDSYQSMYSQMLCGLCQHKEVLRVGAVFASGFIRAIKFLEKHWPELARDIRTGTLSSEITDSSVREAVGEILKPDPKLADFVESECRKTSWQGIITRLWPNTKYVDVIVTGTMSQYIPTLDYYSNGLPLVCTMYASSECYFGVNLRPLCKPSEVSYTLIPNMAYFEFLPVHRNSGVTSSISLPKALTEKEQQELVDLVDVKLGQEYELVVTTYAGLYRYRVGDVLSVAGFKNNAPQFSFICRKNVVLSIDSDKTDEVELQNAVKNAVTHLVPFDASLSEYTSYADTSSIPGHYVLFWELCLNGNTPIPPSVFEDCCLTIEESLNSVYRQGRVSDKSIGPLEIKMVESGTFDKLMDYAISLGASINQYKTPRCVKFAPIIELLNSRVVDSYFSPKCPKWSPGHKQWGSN

AtGH3.6 [2] = biological target: T1, AtGH3.6; test: crystal structure with AMP and Asp; MST; type: binding
UGT84B1 = biological target: T2, UGT84B1 (Arabidopsis thaliana, UniProt O22182); test: bacterial lysate glucosylation assay, HPLC-MS/MS; type: cell-based
T2 construct: recombinant AtUGT84B1 in E. coli lysate
T2 sequence (O22182 1-456): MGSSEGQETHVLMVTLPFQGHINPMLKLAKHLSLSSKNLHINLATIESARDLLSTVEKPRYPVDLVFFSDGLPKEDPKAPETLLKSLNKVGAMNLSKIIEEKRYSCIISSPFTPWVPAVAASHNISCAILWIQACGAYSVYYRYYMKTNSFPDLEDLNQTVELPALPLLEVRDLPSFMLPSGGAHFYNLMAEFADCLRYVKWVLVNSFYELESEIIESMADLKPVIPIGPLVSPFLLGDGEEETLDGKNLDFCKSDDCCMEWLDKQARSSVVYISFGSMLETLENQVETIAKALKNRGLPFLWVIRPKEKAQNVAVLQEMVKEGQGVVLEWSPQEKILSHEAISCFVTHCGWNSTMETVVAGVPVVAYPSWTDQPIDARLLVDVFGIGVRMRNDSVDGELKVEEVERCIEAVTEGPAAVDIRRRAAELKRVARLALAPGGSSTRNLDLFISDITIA

UGT74D1 = biological target: T3, UGT74D1 (Arabidopsis thaliana, UniProt Q9SKC5); test: bacterial lysate glucosylation assay, HPLC-MS/MS; type: cell-based
T3 construct: recombinant AtUGT74D1 in E. coli lysate
T3 sequence (Q9SKC5 1-456): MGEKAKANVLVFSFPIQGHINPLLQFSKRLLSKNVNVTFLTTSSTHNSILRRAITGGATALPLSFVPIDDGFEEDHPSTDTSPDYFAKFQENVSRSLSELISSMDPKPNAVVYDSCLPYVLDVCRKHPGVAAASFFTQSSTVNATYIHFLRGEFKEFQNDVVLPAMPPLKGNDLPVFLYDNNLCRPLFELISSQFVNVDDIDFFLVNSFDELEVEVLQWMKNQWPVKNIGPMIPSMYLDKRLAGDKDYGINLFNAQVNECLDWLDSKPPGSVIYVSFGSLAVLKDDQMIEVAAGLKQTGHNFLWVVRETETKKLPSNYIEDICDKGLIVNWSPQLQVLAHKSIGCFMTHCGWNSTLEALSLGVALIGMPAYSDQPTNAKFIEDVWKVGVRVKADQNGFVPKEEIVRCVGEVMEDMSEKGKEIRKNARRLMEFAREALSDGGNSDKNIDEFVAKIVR

AtGH3.6 [3] = biological target: T1, AtGH3.6; test: MST; also conjugated by AtGH3.[…] in bacterial lysate assay; type: binding

SMILES: N[C@@H](CCC(=O)O)C(=O)O [Glu]
Kd (AtGH3.6 [1]): 720 µM

SMILES: N[C@@H](CC(=O)O)C(=O)O [Asp, aspartate]
Kd (AtGH3.6 [2]): 680 µM

Kd (AtGH3.6 [1]; read-out: Kd): ~60 µM
SMILES: O=C(O)Cc1c[nH]c2ccccc12 [IAA, indole-3-acetic acid]
bacterial lysate glucosylation assay, HPLC-MS/MS (UGT84B1): Both UGT84B1 and UGT74D1 recombinant proteins showed the capability to produce IAA-glc and PAA-glc
bacterial lysate glucosylation assay, HPLC-MS/MS (UGT74D1): Both UGT84B1 and UGT74D1 recombinant proteins showed the capability to produce IAA-glc and PAA-glc

SMILES: O=C(O)Cc1ccccc1 [PAA, phenylacetic acid]
Kd (AtGH3.6 [3]): ~60 µM
